Measurements reported in EP4603105A1, “PHARMACEUTICAL COMPOSITION CONTAINING CYCLIC COMPOUND HAVING SELECTIVE KRAS INHIBITORY EFFECT AGAINST HRAS AND NRAS” (CHUGAI SEIYAKU KABUSHIKI KAISHA, priority 2022, dated 2024).
Where a SMILES comes first, the peptide text is derived from it. Bridges are numbered along the chain shown (N, C = ends). [ ]: non-standard residue; d: D form. The star is where a group is joined. hPhe(3-Cl-4-CF3) = N[C@@H](CCc1ccc(C(F)(F)F)c(Cl)c1)C(=O)O; NPrPhe(4-CF3) = CCCN[C@@H](Cc1ccc(C(F)(F)F)cc1)C(=O)O; NMeGly(cPent) = CN[C@H](C(=O)O)C1CCCC1; Pro(4,4-F2) = O=C(O)[C@@H]1CC(F)(F)CN1; Hyp = O=C(O)[C@@H]1C[C@@H](O)CN1; NMeD = CN[C@@H](CC(=O)O)C(=O)O; NMeL = CN[C@@H](CC(C)C)C(=O)O; Morpholide = C1CN(*)CCO1; NMeA = CN[C@@H](C)C(=O)O; Ac5c = NC1(C(=O)O)CCCC1; Aze = O=C(O)[C@@H]1CCN1; NcPrGly = O=C(O)CNC1CC1; Ac4c = NC1(C(=O)O)CCC1; Sar = CNCC(=O)O

Experiments:
[1] = tested on: human lung cancer strain NCI-H441; type: cell-based
Procedure, shortened: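 Signal came from […] measured per well once the reagent was added. Beforehand, cells were cultured at 37°C and 5% carbon dioxide on a compound series serially diluted in dimethyl sulfoxide.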

[2] = target: GDP-bound NRAS wild-type protein (Homo sapiens, UniProt P01111); experiment: Binding to NRAS by surface plasmon resonance (SPR), KD and KD ratio to KRAS
Procedure, shortened: (§1)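 Measured at 30°C: SPR with GDP-loaded, E. coli-expressed biotin-Avi RAS captured (~100–300 RU), ascending 75 s compound injections, HBS pH 7.4 with GDP, MgCl2, 4% DMSO. KD from 1:1 fit.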

HRAS wild-type protein = HRAS wild-type protein (Homo sapiens, UniProt P01112); experiment: Binding to HRAS by surface plasmon resonance (SPR), KD and KD ratio to KRAS
Procedure, shortened: as §1

[3] = ratio of KD for GDP-bound NRAS wild-type protein to KD for KRAS
[4] = ratio of KD for HRAS wild-type protein to KD for KRAS
[5] = ratio of KD value for GDP-bound NRAS wild-type protein to KD value for KRAS (SPR)
[6] = ratio of KD value for HRAS wild-type protein to KD value for KRAS (SPR)
[7] = ratio of the KD value with respect to GDP-bound NRAS wild-type protein to the KD value with respect to KRAS
[8] = ratio of the KD value with respect to HRAS wild-type protein to the KD value with respect to KRAS

GDP-bound NRAS wild-type protein, sequence (P01111 whole entry): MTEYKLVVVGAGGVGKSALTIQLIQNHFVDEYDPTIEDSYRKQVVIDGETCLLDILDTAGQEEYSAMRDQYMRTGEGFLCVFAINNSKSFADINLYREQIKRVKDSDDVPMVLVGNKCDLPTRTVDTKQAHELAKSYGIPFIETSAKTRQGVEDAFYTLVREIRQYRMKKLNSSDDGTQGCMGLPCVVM
HRAS wild-type protein, sequence (P01112 whole entry): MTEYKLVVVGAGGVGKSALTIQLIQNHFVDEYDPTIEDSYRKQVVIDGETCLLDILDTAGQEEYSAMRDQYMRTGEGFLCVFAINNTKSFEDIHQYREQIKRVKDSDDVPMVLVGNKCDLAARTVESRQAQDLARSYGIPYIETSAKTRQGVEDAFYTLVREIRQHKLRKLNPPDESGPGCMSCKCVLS

IC50 [1] | Structure (SMILES) | NRAS /KRAS [2, 3] | HRAS /KRAS (HRAS wild-type protein; [4]) | NRAS /KRAS [2, 5] | HRAS /KRAS (HRAS wild-type protein; [6]) | NRAS /KRAS [2, 7] | HRAS /KRAS (HRAS wild-type protein; [8])
30.4 nM | CCO[C@@H]1C[C@H]2C(=O)NC3(CC(C)(C)C3)C(=O)N(C)[C@@H](C3CCCC3)C(=O)N(C)[C@H](C(=O)N(C)CC)CC(=O)N(C)[C@@H]([C@@H](C)OC)C(=O)N[C@@H]([C@@H](C)CC)C(=O)N(C3CC3)CC(=O)N(C)[C@H]3C/C=C\CCN(C3=O)[C@@H](Cc3ccc(C)cc3)C(=O)N(C)CC(=O)N[C@@H](CCc3cc(F)c(C(F)(F)F)c(F)c3)C(=O)N2C1 [PP3184] | A (a compound having 10 or more and less than 20 is denoted as A) | A (a compound having 10 or more and less than 20 is denoted as A) | – | – | – | –
8.8 nM | CCO[C@@H]1C[C@H]2C(=O)N(C)C3(CCCC3)C(=O)N(C)[C@@H](C3CCCC3)C(=O)N(C)[C@H](C(=O)N(C)C)CC(=O)N(C)[C@@H](C3CC3)C(=O)N[C@@H]([C@@H](C)CC)C(=O)N(C)CC(=O)N(C)[C@H]3C/C=C\CCN(C3=O)[C@@H](Cc3ccc(C)cc3)C(=O)N(C)CC(=O)N[C@@H](CCc3cc(F)c(C(F)(F)F)c(F)c3)C(=O)N2C1 [PP1808] | – | – | A (a compound having 10 or more and less than 20 is denoted as A) | B (a compound having 3 or more and less than 10 is denoted as B) | – | –
13.1 nM | CCC[C@H]1C(=O)N[C@@H]([C@@H](C)CC)C(=O)N(C)CC(=O)N(C)[C@H]2C/C=C\CCN(C2=O)[C@@H](Cc2ccc(C)cc2)C(=O)N(C)CC(=O)N[C@@H](CCc2ccc(C(F)(F)F)c(OC)c2)C(=O)N2C[C@H](OCC)C[C@H]2C(=O)NC2(CCC2)C(=O)N(C)[C@@H](C2CCCC2)C(=O)N(C)[C@H](C(=O)N(C)C)CC(=O)N1C [PP1871] | – | – | A (a compound having 10 or more and less than 20 is denoted as A) | A (a compound having 10 or more and less than 20 is denoted as A) | – | –
11 nM | CCCN1C(=O)CN(C)C(=O)[C@@H]2CCN2C(=O)[C@H]([C@@H](C)CC)NC(=O)[C@H](CC(C)C)N(C)C(=O)C[C@@H](C(=O)N(C)C)N(C)C(=O)[C@H](C2CCCC2)N(C)C(=O)C2(CCCC2)NC(=O)[C@@H]2C[C@@H](OCC)CN2C(=O)[C@H](CCc2ccc(C(F)(F)F)c(Cl)c2)NC(=O)CN(C)C(=O)[C@@H]1Cc1ccc(C(F)(F)F)cc1 [PP0433] ([NMeL]I[Aze][Sar][NPrPhe(4-CF3)][Sar][hPhe(3-Cl-4-CF3)][Hyp](Et)[Ac5c][NMeGly(cPent)][NMeD]-NMe2; lactam N-11) | – | – | – | – | B (a compound having 3 or more and less than 10 is denoted as B) | B (a compound having 3 or more and less than 10 is denoted as B)
19.4 nM | CCCN1C(=O)CN(C)C(=O)CN(C2CC2)C(=O)[C@H]([C@@H](C)CC)NC(=O)[C@H](CC(C)C)N(C)C(=O)C[C@@H](C(=O)N2CCOCC2)N(C)C(=O)[C@H](C2CCCC2)N(C)C(=O)C2(CCCC2)NC(=O)[C@@H]2CCCN2C(=O)[C@H](CCc2ccc(C(F)(F)F)c(Cl)c2)NC(=O)CN(C)C(=O)[C@@H]1Cc1ccc(C(F)(F)F)cc1 [PP0252] ([NMeL]I[NcPrGly][Sar][NPrPhe(4-CF3)][Sar][hPhe(3-Cl-4-CF3)]P[Ac5c][NMeGly(cPent)][NMeD]-Morpholide; lactam N-11) | B (a compound having 3 or more and less than 10 is denoted as B) | B (a compound having 3 or more and less than 10 is denoted as B) | – | – | – | –
111 nM | CCC[C@H]1C(=O)N[C@@H]([C@@H](C)CC)C(=O)N(C)CC(=O)N(C)[C@H]2C/C=C\CCN(C2=O)[C@@H](Cc2ccc(C(F)(F)F)cc2)C(=O)N(C)CC(=O)N[C@@H](CCc2ccc(CC)c(Cl)c2)C(=O)N2C[C@H](OCC)C[C@H]2C(=O)NC2(CC(C)(C)C2)C(=O)N(C)[C@@H](C(CC)CC)C(=O)N(C)[C@H](C(=O)N(C)C)CC(=O)N1C [PP2777] | AA (a compound having 20 or more is denoted as AA) | A (a compound having 10 or more and less than 20 is denoted as A) | – | – | – | –
10.4 nM | CCC[C@H]1C(=O)N[C@@H]([C@@H](C)CC)C(=O)N(C)CC(=O)N(C)[C@H]2C/C=C\CCN(C2=O)[C@@H](Cc2ccc(C(F)(F)F)cc2)C(=O)N(C)CC(=O)N[C@@H](CCc2ccc(C(F)(F)F)c(Cl)c2)C(=O)N2C[C@@H](C)C[C@H]2C(=O)NC2(CC(C)(C)C2)C(=O)N(C)[C@@H](C2CCCC2)C(=O)N(C)[C@H](C(=O)N(C)C)CC(=O)N1C [PP2270] | – | – | – | – | B (a compound having 3 or more and less than 10 is denoted as B) | B (a compound having 3 or more and less than 10 is denoted as B)
17.7 nM | CCCN(C)C(=O)[C@@H]1CC(=O)N(C)[C@@H](C(C)C)C(=O)N[C@@H]([C@@H](C)CC)C(=O)N(C)CC(=O)N(C)[C@H]2C/C=C\CCN(C2=O)[C@@H](Cc2ccc(C(F)(F)F)cc2)C(=O)N(C)CC(=O)N[C@@H](CCc2ccc(C(F)(F)F)c(OC)c2)C(=O)N2C[C@@H](C)C[C@H]2C(=O)NC2(CCC2)C(=O)N(C)[C@@H](C2CCCC2)C(=O)N1C [PP2067] | – | – | – | – | AA (a compound having 20 or more is denoted as AA) | A (a compound having 10 or more and less than 20 is denoted as A)
1.9 nM | CCCN1C(=O)[C@@H]2CCN2C(=O)[C@H](C)N(C)C(=O)[C@H]([C@@H](C)CC)NC(=O)[C@H](CC(C)C)N(C)C(=O)C[C@@H](C(=O)N2CCOCC2)N(C)C(=O)[C@H](C2CCCC2)N(C)C(=O)C2(CCCC2)NC(=O)[C@@H]2C[C@@H](OC)CN2C(=O)[C@H](CCc2ccc(C(F)(F)F)c(Cl)c2)NC(=O)CN(C)C(=O)[C@@H]1Cc1ccc(C(F)(F)F)cc1 [PP0283] ([NMeL]I[NMeA][Aze][NPrPhe(4-CF3)][Sar][hPhe(3-Cl-4-CF3)][Hyp](Me)[Ac5c][NMeGly(cPent)][NMeD]-Morpholide; lactam N-11) | C (A compound having a KD ratio of 0.1 or more and less than 3 is denoted as C) | C (A compound having a KD ratio of 0.1 or more and less than 3 is denoted as C) | – | – | – | –
11.6 nM | CCCN1C(=O)[C@@H]2CCN2C(=O)CN(C)C(=O)[C@H]([C@@H](C)CC)NC(=O)[C@H](CC(C)C)N(C)C(=O)C[C@@H](C(=O)N(C)C)NC(=O)[C@H](C2CCCC2)N(C)C(=O)C2(CCC2)NC(=O)[C@@H]2CC(F)(F)CN2C(=O)[C@H](CCc2ccc(C(F)(F)F)c(Cl)c2)NC(=O)CN(C)C(=O)[C@@H]1Cc1ccc(C(F)(F)F)cc1 [PP0388] ([NMeL]I[Sar][Aze][NPrPhe(4-CF3)][Sar][hPhe(3-Cl-4-CF3)][Pro(4,4-F2)][Ac4c][NMeGly(cPent)]D-NMe2; lactam N-11) | – | – | – | – | C (A compound having a KD ratio of 0.1 or more and less than 3 is denoted as C) | B (a compound having 3 or more and less than 10 is denoted as B)
1.8 nM | CCC[C@H]1C(=O)N[C@@H]([C@@H](C)CC)C(=O)N(C)CC(=O)N(C)[C@H]2C/C=C\CCN(C2=O)[C@@H](Cc2ccc(C(F)(F)F)cc2)C(=O)N(C)CC(=O)N[C@@H](CCc2ccc(C(F)(F)F)c(OC)c2)C(=O)N2C[C@H](OCC)C[C@H]2C(=O)NC2(CC(C)(C)C2)C(=O)N(C)[C@@H](C2CCCC2)C(=O)N(C)[C@H](C(=O)N(C)C)CC(=O)N1C [PP1560] | – | – | A (a compound having 10 or more and less than 20 is denoted as A) | B (a compound having 3 or more and less than 10 is denoted as B) | – | –
10.8 nM | CCO[C@@H]1C[C@H]2C(=O)NC3(CC(C)(C)C3)C(=O)N(C)[C@@H](C3CCCC3)C(=O)N(C)[C@H](C(=O)N(C)C)CC(=O)N(C)[C@@H](C)C(=O)N[C@@H]([C@@H](C)CC)C(=O)N(C)CC(=O)N(C)[C@H]3CCCCCN(C3=O)[C@@H](Cc3ccc(C(F)(F)F)cc3)C(=O)N(C)CC(=O)N[C@@H](CCc3cc(F)c(C(F)(F)F)c(F)c3)C(=O)N2C1 [PP0723] | – | – | – | – | B (a compound having 3 or more and less than 10 is denoted as B) | B (a compound having 3 or more and less than 10 is denoted as B)

Structure (SMILES) | IC50 [1] | NRAS /KRAS [2, 3] | HRAS /KRAS (HRAS wild-type protein; [4]) | NRAS /KRAS [2, 5] | HRAS /KRAS (HRAS wild-type protein; [6]) | NRAS /KRAS [2, 7] | HRAS /KRAS (HRAS wild-type protein; [8])
CCO[C@@H]1C[C@H]2C(=O)NC3(CCC3)C(=O)N(C)[C@@H](C(CC)CC)C(=O)N(C)[C@H](C(=O)N3CCCCC3)CC(=O)N(C)[C@H]3CCCC/C=C/c4ccc(cc4)C[C@@H](C(=O)N(C)CC(=O)N[C@@H](CCc4ccc(Cl)c(Cl)c4)C(=O)N2C1)N1CC/C=C\C[C@@H](C1=O)N(C)C(=O)CN(C)C(=O)[C@H]([C@@H](C)CC)NC3=O [PP3046] | 16.7 nM | AA (a compound having 20 or more is denoted as AA) | A (a compound having 10 or more and less than 20 is denoted as A) | – | – | – | –
CCO[C@@H]1C[C@H]2C(=O)NC3(CC(C)(C)C3)C(=O)N(C)[C@@H](C3CCCC3)C(=O)N(C)[C@H](C(=O)N(C)C)CC(=O)N(C)[C@@H](CC(C)C)C(=O)N[C@@H]([C@@H](C)CC)C(=O)N(C)CC(=O)N(C)[C@H]3C/C=C\CCN(C3=O)[C@@H](Cc3ccc(C)cc3F)C(=O)N(C)CC(=O)N[C@@H](CCc3ccc(C(F)(F)F)c(OC)c3)C(=O)N2C1 [PP2688] | 6.9 nM | A (a compound having 10 or more and less than 20 is denoted as A) | B (a compound having 3 or more and less than 10 is denoted as B) | – | – | – | –
